Here are results for four molecules from publication PMC9100673, “Acridine Based N-Acylhydrazone Derivatives as Potential Anticancer Agents: Synthesis, Characterization and ctDNA/HSA Spectroscopic Binding Properties” (Molecules, 2022).

The target of the experiment is T1, human serum albumin (HSA) (Homo sapiens, UniProt P02768).
T1 construct: purchased Sigma (St. Louis, MO, USA)
Nature of the experiment: HSA fluorescence quenching (steady-state fluorescence titration). Type of experiment: binding. To be noted: for KSV, Stern–Volmer quenching constant: HSA 4 μM, pH 7.4; for ΔH / ΔS: van't Hoff plot, 25–35 °C; for blue shift of HSA fluorescence emission maximum: λex 280 nm. The protocol:
Human serum albumin (HSA) emission spectra were recorded in the absence and presence of different amounts of acridine derivatives (3a–3d) at a range of 285 to 550 nm upon excitation at 280 nm. The emission maximum of fluorescence intensity of HSA was identified at 340 nm. […] The fluorescence intensity of HSA in the presence of the acridine derivatives decreases in the relation […], with decreases of 58%, 51%, 43% and 38%, respectively. Moreover, the reduction of fluorescence emission of HSA by derivatives 3a–3d was accompanied by an apparent change in the position of the maximum wavelength of the fluorescence emission, with a blue shift of 6 nm (3d) ≈ (3b) < 7 nm (3c) < 8 nm (3a).
The appearance of an isoactinic point at 430 nm might also indicate the existence of an equilibrium between bound and free drugs, with the presence of such an equilibrium possibly emphasizing the formation of the drug–protein complex. Fluorescence quenching can be divided into the two processes of dynamic and static quenching. In dynamic quenching, the fluorophore and quencher are in contact in an excited state, increasing the temperature and resulting in faster diffusion and a higher frequency of collision, which in turn increases the quenching constant. In comparison, static quenching is typical in complexes formed between the fluorophore and quencher in a ground state in which the increasing temperature weakens the stability of the complex. Quantitative analysis was performed by using the Stern–Volmer Equation (1):(1) F0/F=1+KSVQ=1+Kqτ0Q, where F0 and F represent the fluorescence intensity of HSA in the absence and presence of acridine derivatives, respectively. KSV is the Stern–Volmer dynamic quenching constant which was determined from the plot of relative intensity F0/F of fluorescence vs. the concentration of the acridine derivative. Kq is the quenching rate constant of biomolecules, which is known to be around 2.0 × 10^10 M^−1 s^−1, and τ0 is the average lifetime of the fluorophore in the absence of the quencher, with a typical value equal to around 10^−8 for biomolecules. The quenching constant KSV of derivatives 3a–3d were of 10^5 M^−1. The KSV values recorded for derivatives 3a and 3b decreased at increasing temperatures, while those of derivatives 3c and 3d increased at increasing temperatures. The increased KSV values at increasing temperature in the presence of derivative 3c may indicate that the binding forces are mainly hydrophobic (endothermic apolar interactions are strengthened at increasing temperatures). Additionally, the Kq values obtained for HSA of 10^13 M^−1 s^−1 are greater than the limiting diffusion rate constant of diffusional quenching for biopolymers (2.0 × 10^10 M^−1 s^−1).
In order to evaluate the magnitude of the interaction, other parameters such as the binding constant ( Kb) and the number of binding sites (n) on the drug–HSA complex were calculated at three temperatures using Equation (2):(2) logF0−F/F=logKb+nlogQ, where F0 and F are the fluorescence intensity of the fluorophore (HSA) in the absence and presence of the quencher-acridine derivative, and [Q] is the quencher concentration. The values of Kb and n were determined using the linear regression of a plot of log(F0 − F/F) to log[Q] (Figure S3). […] Since the values of Kb were 10^5 M^−1 (3a–3c) or 10^4 M^−1 (3d), it would therefore be suitable for distribution in the plasma in vivo.
Based on the Kb dependency on temperature, it is, therefore, possible to analyse the temperature-dependent thermodynamic parameters which can be considered as responsible for the formation of a complex. […]

T1 sequence (P02768 25-609): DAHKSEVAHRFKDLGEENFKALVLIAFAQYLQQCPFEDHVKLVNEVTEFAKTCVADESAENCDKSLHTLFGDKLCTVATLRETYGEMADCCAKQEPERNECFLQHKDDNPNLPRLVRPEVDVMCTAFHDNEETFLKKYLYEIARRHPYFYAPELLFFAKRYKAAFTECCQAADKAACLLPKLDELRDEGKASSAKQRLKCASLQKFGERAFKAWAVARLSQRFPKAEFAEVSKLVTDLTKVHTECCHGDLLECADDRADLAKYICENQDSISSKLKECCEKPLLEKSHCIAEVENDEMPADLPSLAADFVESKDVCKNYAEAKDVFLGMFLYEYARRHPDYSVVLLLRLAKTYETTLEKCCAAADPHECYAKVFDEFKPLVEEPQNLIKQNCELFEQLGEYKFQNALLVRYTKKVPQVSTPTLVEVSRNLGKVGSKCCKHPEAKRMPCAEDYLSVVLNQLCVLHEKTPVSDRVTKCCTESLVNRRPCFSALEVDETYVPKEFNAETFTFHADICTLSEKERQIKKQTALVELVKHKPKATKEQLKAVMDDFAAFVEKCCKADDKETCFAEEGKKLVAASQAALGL

As for `O=C(N/N=C/c1cccc2cc3ccccc3nc12)c1ccc(Cl)cc1` [3c, N′-[(E)-Acridin-4-ylmethylidene]-4-chlorobenzohydrazide], the ΔH came out at 142.55 kJ/mol, the ΔS is 568.32 ×10^−3 kJ mol^−1 K^−1 and the “blue shift of HSA fluorescence emission maximum” value (“blue shift” for short) was 7 nm. Moreover, where the note is “25 °C”, the “Kq, bimolecular quenching rate constant” value came out at 2.29e+13 M⁻¹ s⁻¹; the “n, number of binding sites” value is on record as 0.888; the ΔG was -26.89 kJ/mol; the “KSV, Stern–Volmer quenching constant” value worked out at 229000 M⁻¹. For the same molecule, where the note is “30 °C”, the “Kq, bimolecular quenching rate constant” value turned out to be 2.48e+13 M⁻¹ s⁻¹; the “n, number of binding sites” value is reported as 0.925; the ΔG is -29.74 kJ/mol; the “KSV, Stern–Volmer quenching constant” value came out at 248000 M⁻¹. For the same molecule, under “35 °C”, the “Kq, bimolecular quenching rate constant” value was determined as 2.62e+13 M⁻¹ s⁻¹; the “n, number of binding sites” value was 1.030; the ΔG was -32.58 kJ/mol; the “KSV, Stern–Volmer quenching constant” value was 262000 M⁻¹.

For the molecule `O=C(N/N=C/c1cccc2cc3ccccc3nc12)c1ccc(Br)cc1` [3d, N′-[(E)-Acridin-4-ylmethylidene]-4-bromobenzohydrazide], the ΔH is -135.40 kJ/mol, the ΔS is −352.39 ×10^−3 kJ mol^−1 K^−1 and the “blue shift” value is reported as 6 nm. For the same molecule, under “25 °C”, the “Kq, bimolecular quenching rate constant” value turned out to be 1.16e+13 M⁻¹ s⁻¹; the “n, number of binding sites” value was 1.052; the ΔG was -30.33 kJ/mol; the “KSV, Stern–Volmer quenching constant” value stood at 116000 M⁻¹. Besides, under “30 °C”, the “Kq, bimolecular quenching rate constant” value stood at 2.06e+13 M⁻¹ s⁻¹; the “n, number of binding sites” value is reported as 0.917; the ΔG was -28.57 kJ/mol; the “KSV, Stern–Volmer quenching constant” value was determined as 206000 M⁻¹. Moreover, for the setting “35 °C”, the “Kq, bimolecular quenching rate constant” value was 2.42e+13 M⁻¹ s⁻¹; the “n, number of binding sites” value stood at 0.846; the ΔG is -26.81 kJ/mol; the “KSV, Stern–Volmer quenching constant” value turned out to be 242000 M⁻¹.

Regarding `O=C(N/N=C/c1cccc2cc3ccccc3nc12)c1ccc(F)cc1` [3b, N′-[(E)-Acridin-4-ylmethylidene]-4-fluorobenzohydrazide], the ΔH was -44.94 kJ/mol, the ΔS is recorded as −43.24 ×10^−3 kJ mol^−1 K^−1 and the “blue shift” value is on record as roughly 6 nm. Under “25 °C”, the “Kq, bimolecular quenching rate constant” value came out at 1.51e+13 M⁻¹ s⁻¹; the “n, number of binding sites” value was 1.079; the ΔG was -32.05 kJ/mol; the “KSV, Stern–Volmer quenching constant” value turned out to be 151000 M⁻¹. Further, where the note is “30 °C”, the “Kq, bimolecular quenching rate constant” value stood at 1.57e+13 M⁻¹ s⁻¹; the “n, number of binding sites” value was 1.061; the ΔG is -31.84 kJ/mol; the “KSV, Stern–Volmer quenching constant” value was determined as 157000 M⁻¹. Moreover, for the setting “35 °C”, the “Kq, bimolecular quenching rate constant” value amounted to 1.37e+13 M⁻¹ s⁻¹; the “n, number of binding sites” value came out at 1.039; the ΔG is -31.62 kJ/mol; the “KSV, Stern–Volmer quenching constant” value worked out at 137000 M⁻¹.

In the case of `O=C(N/N=C/c1cccc2cc3ccccc3nc12)c1ccccc1` [3a, N′-[(E)-(Acridin-4-yl)methylidene]benzohydrazide], the ΔH was -43.21 kJ/mol, the ΔS is −33.80 ×10^−3 kJ mol^−1 K^−1 and the “blue shift” value turned out to be 8 nm. Moreover, under “25 °C”, the “Kq, bimolecular quenching rate constant” value is 2.67e+13 M⁻¹ s⁻¹; the “n, number of binding sites” value is recorded as 1.068; the ΔG was -33.13 kJ/mol; the “KSV, Stern–Volmer quenching constant” value amounted to 267000 M⁻¹. In addition, for the setting “30 °C”, the “Kq, bimolecular quenching rate constant” value was determined as 2.68e+13 M⁻¹ s⁻¹; the “n, number of binding sites” value was found to be 1.054; the ΔG is -32.96 kJ/mol; the “KSV, Stern–Volmer quenching constant” value was 268000 M⁻¹. Besides, under “35 °C”, the “Kq, bimolecular quenching rate constant” value is 2.61e+13 M⁻¹ s⁻¹; the “n, number of binding sites” value was 1.023; the ΔG is -32.79 kJ/mol; the “KSV, Stern–Volmer quenching constant” value turned out to be 261000 M⁻¹. Besides, where the note is “without site marker”, the “KSV for the HSA-3a complex” value was determined as 267000 M⁻¹ and the “Kb for the HSA-3a complex” value amounted to 610000 M⁻¹.
